Test results published in ChEMBL document CHEMBL5380833 (J Med Chem, 2023).

How the values were obtained:
[1] = biological target: T1, Protein cereblon/Tyrosine-protein kinase ITK/TSK (Homo sapiens, UniProt Q08881+Q96SW2); assay: PROTAC activity at CRBN/ITK in human Jurkat cells assessed as induction of ITK degradation by Western blot analysis; assay type: cell-based
Target sequence in this assay (Q96SW2 whole entry, one chain of several): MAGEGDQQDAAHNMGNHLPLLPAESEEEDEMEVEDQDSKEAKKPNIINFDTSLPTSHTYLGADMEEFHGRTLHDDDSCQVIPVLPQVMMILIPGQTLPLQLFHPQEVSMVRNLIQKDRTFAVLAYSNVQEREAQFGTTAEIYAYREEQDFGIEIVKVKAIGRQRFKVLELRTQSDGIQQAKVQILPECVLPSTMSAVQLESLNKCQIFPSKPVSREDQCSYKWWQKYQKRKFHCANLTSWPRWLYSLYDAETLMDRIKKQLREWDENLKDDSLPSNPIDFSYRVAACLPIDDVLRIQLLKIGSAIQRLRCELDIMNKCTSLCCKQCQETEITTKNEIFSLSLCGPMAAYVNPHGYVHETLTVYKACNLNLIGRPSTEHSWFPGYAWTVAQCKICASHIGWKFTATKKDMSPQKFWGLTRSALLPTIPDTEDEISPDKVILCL

[2] = biological target: T1, Protein cereblon/Tyrosine-protein kinase ITK/TSK; assay: PROTAC activity at CRBN/ITK in human Jurkat cells assessed as maximum degradation at 0.01 to 10 uM by Western blot analysis relative to control; assay type: cell-based; conditions: dose 0.01-10 µM
Target sequence in this assay (Q96SW2 whole entry, looked up, one chain of several): as the sequence (Q96SW2 whole entry, one chain of several) above

[3] = biological target: T2, Tyrosine-protein kinase ITK/TSK (Homo sapiens, UniProt Q08881); assay: Inhibition of ITK (unknown origin)
T2 sequence (Q08881 whole entry): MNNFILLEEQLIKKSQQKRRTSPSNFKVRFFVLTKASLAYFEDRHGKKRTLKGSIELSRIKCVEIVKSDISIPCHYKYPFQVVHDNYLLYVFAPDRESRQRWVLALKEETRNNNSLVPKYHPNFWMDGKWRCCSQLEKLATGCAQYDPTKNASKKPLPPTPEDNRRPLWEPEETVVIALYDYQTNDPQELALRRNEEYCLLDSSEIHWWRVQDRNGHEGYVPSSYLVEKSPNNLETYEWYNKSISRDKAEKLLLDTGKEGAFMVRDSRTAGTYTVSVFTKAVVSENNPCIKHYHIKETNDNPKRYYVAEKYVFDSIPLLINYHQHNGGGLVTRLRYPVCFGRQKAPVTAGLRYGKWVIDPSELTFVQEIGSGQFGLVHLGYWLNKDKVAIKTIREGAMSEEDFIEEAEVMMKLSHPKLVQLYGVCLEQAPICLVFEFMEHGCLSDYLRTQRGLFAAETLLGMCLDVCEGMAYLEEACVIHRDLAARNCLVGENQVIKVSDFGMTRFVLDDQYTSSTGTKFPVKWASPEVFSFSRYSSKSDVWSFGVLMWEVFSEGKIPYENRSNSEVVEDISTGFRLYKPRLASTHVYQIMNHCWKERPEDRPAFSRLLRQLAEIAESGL

Interleukin-2 = Interleukin-2 (Homo sapiens, UniProt P60568); assay: Inhibition of IL-2 in human Jurkat T cells pretreated with compound for 16 hrs followed by anti-CD3 stimulation by ELISA analysis; assay type: cell-based
Sequence of Interleukin-2 (P60568 whole entry): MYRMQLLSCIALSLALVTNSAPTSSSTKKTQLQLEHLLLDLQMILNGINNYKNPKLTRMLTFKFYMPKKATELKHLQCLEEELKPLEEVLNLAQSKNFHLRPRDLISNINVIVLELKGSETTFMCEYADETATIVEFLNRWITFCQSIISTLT

| SMILES | EC50 ([1]; read-out: EC50) | Emax [2] | IC50 [3] | EC50 ([1]; jurkat) | EC50 (Interleukin-2) |
| --- | --- | --- | --- | --- | --- |
| CN(CCOCCOCCOCCOCC(=O)Nc1cccc2c1C(=O)N(C1CCC(=O)NC1=O)C2=O)CC[C@@H](c1ccccc1)n1cc(NC(=O)c2n[nH]c3c2CCC(C)(C)C3)cn1 (some centres not stated) | 286 nM | 75% |  |  |  |
| COc1cccc(-n2c(=O)c(C(=O)Nc3ccc(-c4nc(-c5ccnc(N6CC(OC)C6)c5)cnc4N)nc3)c(C)n2C)c1 |  |  | < 4 nM |  |  |
| CN(CCOCCOCCOCC(=O)Nc1cccc2c1C(=O)N(C1CCC(=O)NC1=O)C2=O)CC[C@@H](c1ccccc1)n1cc(NC(=O)c2n[nH]c3c2CCC(C)(C)C3)cn1 (some centres not stated) | 353 nM | 75% |  |  |  |
| CN(CCOCCOCCOCCNC(=O)CNc1cccc2c1C(=O)N(C1CCC(=O)NC1=O)C2=O)CC[C@@H](c1ccccc1)n1cc(NC(=O)c2n[nH]c3c2CCC(C)(C)C3)cn1 (some centres not stated) | 62.2 nM | 93% |  |  |  |
| CC1(C)CCc2c(C(=O)Nc3cnn([C@@H](CCN4CCN(CCC5CN(c6ccc7c(c6)C(=O)N(C6CCC(=O)NC6=O)C7=O)C5)CC4)c4ccccc4)c3)n[nH]c2C1 (some centres not stated) | 142 nM | 90% |  |  |  |
| CN(CCOCCC(=O)NC1=CCC2C(=O)N(C3CCC(=O)NC3=O)C(=O)C2=C1)CC[C@@H](c1ccccc1)n1cc(NC(=O)c2n[nH]c3c2CCC(C)(C)C3)cn1 (some centres not stated) | 15.6 nM | 97% |  |  |  |
| CC1(C)CCc2c(C(=O)Nc3cnn([C@@H](CCN4CCN(CC5CN(c6ccc7c(c6)C(=O)N(C6CCC(=O)NC6=O)C7=O)C5)CC4)c4ccccc4)c3)n[nH]c2C1 (some centres not stated) | 10 nM | 85% |  |  |  |
| CC1(C)CCc2c(C(=O)Nc3cnn([C@@H](CCN4CCN(CC5CCN(c6ccc7c(c6)C(=O)N(C6CCC(=O)NC6=O)C7=O)CC5)CC4)c4ccccc4)c3)n[nH]c2C1 (some centres not stated) | 29.3 nM | 90% |  |  |  |
| COc1cc(C)c(Sc2cnc(NC(=O)c3ccc(CNC(C)C(C)(C)C)cc3)s2)cc1C(=O)N1CCN(C(C)=O)CC1 (configuration not stated) |  |  |  |  | 238 nM |

Further lines, results first:

| EC50 ([1]; read-out: EC50) | Emax [2] | IC50 [3] | EC50 ([1]; jurkat) | EC50 (Interleukin-2) | SMILES |
| --- | --- | --- | --- | --- | --- |
| 75.4 nM | 82% |  |  |  | CN(CCCCCCCCCCC(=O)Nc1ccc2c(c1)C(=O)N(C1CCC(=O)NC1=O)C2=O)CC[C@@H](c1ccccc1)n1cc(NC(=O)c2n[nH]c3c2CCC(C)(C)C3)cn1 (some centres not stated) |
| 9 nM | 90% |  |  |  | CN(CCCCCCC(=O)Nc1ccc2c(c1)C(=O)N(C1CCC(=O)NC1=O)C2=O)CC[C@@H](c1ccccc1)n1cc(NC(=O)c2n[nH]c3c2CCC(C)(C)C3)cn1 (some centres not stated) |
| 26.7 nM | 95% |  |  |  | CN(CCOCCOCC(=O)Nc1ccc2c(c1)C(=O)N(C1CCC(=O)NC1=O)C2=O)CC[C@@H](c1ccccc1)n1cc(NC(=O)c2n[nH]c3c2CCC(C)(C)C3)cn1 (some centres not stated) |
| 32.7 nM | 95% |  |  |  | CN(CCOCCOCCNC(=O)CNc1cccc2c1C(=O)N(C1CCC(=O)NC1=O)C2=O)CC[C@@H](c1ccccc1)n1cc(NC(=O)c2n[nH]c3c2CCC(C)(C)C3)cn1 (some centres not stated) |
|  |  |  | Not Active |  | CN(CCCCCC(=O)Nc1ccc2c(c1)C(=O)N(C1CCC(=O)N(C)C1=O)C2=O)CC[C@@H](c1ccccc1)n1cc(NC(=O)c2n[nH]c3c2CCC(C)(C)C3)cn1 (some centres not stated) |
| 220 nM | 75% |  |  |  | CN(CCOCCOCC(=O)Nc1cccc2c1C(=O)N(C1CCC(=O)NC1=O)C2=O)CC[C@@H](c1ccccc1)n1cc(NC(=O)c2n[nH]c3c2CCC(C)(C)C3)cn1 (some centres not stated) |
| 32.7 nM | 99% |  |  |  | CN(CCOCCNC(=O)CNc1cccc2c1C(=O)N(C1CCC(=O)NC1=O)C2=O)CC[C@@H](c1ccccc1)n1cc(NC(=O)c2n[nH]c3c2CCC(C)(C)C3)cn1 (some centres not stated) |
| 5.3 nM | 90% |  |  |  | CN(CCCCC(=O)Nc1ccc2c(c1)C(=O)N(C1CCC(=O)NC1=O)C2=O)CC[C@@H](c1ccccc1)n1cc(NC(=O)c2n[nH]c3c2CCC(C)(C)C3)cn1 (some centres not stated) |
| 5.5 nM | 93% |  |  |  | CN(CCCCCCCCC(=O)Nc1ccc2c(c1)C(=O)N(C1CCC(=O)NC1=O)C2=O)CC[C@@H](c1ccccc1)n1cc(NC(=O)c2n[nH]c3c2CCC(C)(C)C3)cn1 (some centres not stated) |
| 106 nM | 92% |  |  |  | CN(CCOCCOCCOCCOCC(=O)Nc1ccc2c(c1)C(=O)N(C1CCC(=O)NC1=O)C2=O)CC[C@@H](c1ccccc1)n1cc(NC(=O)c2n[nH]c3c2CCC(C)(C)C3)cn1 (some centres not stated) |
| 94.1 nM | 93% |  |  |  | CN(CCOCCOCCOCC(=O)Nc1ccc2c(c1)C(=O)N(C1CCC(=O)NC1=O)C2=O)CC[C@@H](c1ccccc1)n1cc(NC(=O)c2n[nH]c3c2CCC(C)(C)C3)cn1 (some centres not stated) |
